# Test results as given in US10588839B2, “Method of shaping hair” (Conopco, Inc., priority 2013, dated 2020).
# Tests used:
# [1] = Volume of hair switches by image analysis after soaking, ironing at 200° C. and washing (Example 1)
# Procedure: Dark brown wavy #6 European hair switches were soaked for 30 minutes in solutions of 2% glyceraldehyde at its natural or spontaneous pH.
# All switches were combed straight and were dried in drying cabinets. When dry the switches were ironed with 7 passes using straighteners at 200° C.
# The switches were subsequently washed after 3 days with base shampoo and combed straight and dried in drying cabinets.
# When dry the switches were combed and pictures taken. The volumes of the switches were measured using an image analysis kit.
# If the switches are visually straight then the volume of the switches (actually the projection of the volume in mm^2 on to an image plane) is a measure of the straightness benefits of the treatment.
# [2] = Volume of hair switches by image analysis after soaking and combing, no heat treatment (Example 3); settings: 30 min soak; for volume of treated hair switches: combed straight, dried; for % benefit: water as control
# Source text: Control switches were soaked in water.
# When dry the switches were combed straight and pictures taken.
Structure (SMILES),"% benefit after ironing + 1 wash ([1]; 2% glyceraldehyde solution, 30 min soak, 7 iron passes at 200° C., 1 wash, versus control)","% benefit after ironing + 2 washes ([1]; 2% glyceraldehyde solution, 30 min soak, 7 iron passes at 200° C., 2 washes, versus control)","Volume of treated hair switches after ironing + 2 washes ([1]; 2% glyceraldehyde solution, 30 min soak, 7 iron passes at 200° C., 3 day gap between washings)","Volume of treated hair switches after ironing + 1 wash ([1]; 2% glyceraldehyde solution, 30 min soak, 7 iron passes at 200° C., washed after 3 days with base shampoo)","straightness benefit (in words) ([1]; with heat treatment, after washing)",volume of treated hair switches [2],% benefit [2]
"O=CC(O)CO (stereo not drawn) [Glyceraldehyde, glyceraldehyde]",26.4%,11.3%,11191.17 mm^2,10927.15 mm^2,durable straightness benefits,12458 mm^2,21.6%
"NCCCC[C@H](N)C(=O)O [2% Lysine, lysine]",,,,,,9975 mm^2,37.2%
